The assay deals with T1, PRMT1 (Homo sapiens, UniProt Q99873).
T1 construct: GST-tagged PRMT1; made in house; host or cells: High Five insect cells (baculovirus)
As to the kind of experiment: PRMT1 Biochemical Assay (3H-SAM Flashplate, peptide substrate). The following applies: 30 min preincubation, room temperature. The source says: S-adenosylmethionine (SAM), S-adenosylhomocysteine (SAH), bicine, Tween20, dimethylsulfoxide (DMSO), bovine skin gelatin (BSG), and Tris(2-carboxyethyl)phosphine hydrochloride solution (TCEP) were purchased from Sigma-Aldrich at the highest level of purity possible. ^3H-SAM was purchase from American Radiolabeled Chemicals with a specific activity of 80 Ci/mmol. 384-well streptavidin Flashplates were purchased from PerkinElmer.
Peptide representative of human histone H4 residues 36-50 was synthesized with an N-terminal linker-affinity tag motif and a C-terminal amide cap by 21st Century Biochemicals. The peptide was purified by high-performance liquid chromatography (HPLC) to greater than 95% purity and confirmed by liquid chromatography mass spectrometry (LC-MS). The sequence was Biot-Ahx-[…]-amide (SEQ ID NO.: 1).
Full-length human PRMT1 isoform 1 (NM_001536.5) transcript clone was amplified from an HEK 293 cDNA library, incorporating flanking 5′ sequence encoding a FLAG tag ([…]) (SEQ ID NO.:2) fused directly to Met 1 of PRMT1. The amplified gene was subcloned into pFastBacI (Life Technologies) modified to encode an N-terminal GST tag and a TEV cleavage sequence ([…] […] […] […]) (SEQ ID NO.:3) fused to Asp of the Flag tag of PRMT1.
Recombinant baculovirus were generated according to Bac-to-Bac kit instructions (Life Technologies). Protein over-expression was accomplished by infecting exponentially growing High Five insect cell culture at 1.5×10^6 cell/ml with 1:100 ratio of virus. Infections were carried out at 27° C. for 48 hours, harvested by centrifugation, and stored at −80° C. for purification.
General Procedure for PRMT1 Enzyme Assays on Peptide Substrates.
The assays were all performed in a buffer consisting of 20 mM Bicine (pH=7.6), 1 mM TCEP, 0.005% BSG, and 0.002% Tween 20, prepared on the day of use. Compounds in 100% DMSO (1 ul) were spotted into a polypropylene 384-well V-bottom plates (Greiner) using a Platemate Plus outfitted with a 384-channel head (Thermo Scientific). DMSO (1 ul) was added to Columns 11, 12, 23, 24, rows A-H for the maximum signal control and 1 ul of SAH, a known product and inhibitor of PRMT1, was added to columns 11, 12, 23, 24, rows I-P for the minimum signal control. A cocktail (40 ul) containing the PRMT1 enzyme was added by Multidrop Combi (Thermo-Fisher). The compounds were allowed to incubate with PRMT1 for 30 min at room temperature, then a cocktail (10 ul) containing SAM and peptide was added to initiate the reaction (final volume=51 ul). The final concentrations of the components were as follows: PRMT1 was 0.5 nM, ^3H-SAM was 200 nM, non-radiolabeled SAM was 1.5 uM, peptide was 20 nM, SAH in the minimum signal control wells was 1 mM, and the DMSO concentration was 2%. The assays were stopped by the addition of non-radiolabeled SAM (10 ul) to a final concentration of 300 uM, which dilutes the ^3H-SAM to a level where its incorporation into the peptide substrate is no longer detectable. 50 ul of the reaction in the 384-well polypropylene plate was then transferred to a 384-well Flashplate and the biotinylated peptides were allowed to bind to the streptavidin surface for at least 1 hour before being washed once with 0.1% Tween20 in a Biotek ELx405 plate washer. The plates were then read in a PerkinElmer TopCount plate reader to measure the quantity of ^3H-labeled peptide bound to the Flashplate surface, measured as disintegrations per minute (dpm) or alternatively, referred to as counts per minute (cpm).
Where dpm=disintegrations per minute, cmpd=signal in assay well, and min and max are the respective minimum and maximum signal controls.
Where top and bottom are the normally allowed to float, but may be fixed at 100 or 0 respectively in a 3-parameter fit. The Hill Coefficient normally allowed to float but may also be fixed at 1 in a 3-parameter fit. Y is the % inhibition and X is the compound concentration.

Each structure is given as a SMILES string.

T1 sequence (Q99873 with tags, fused parts or gaps): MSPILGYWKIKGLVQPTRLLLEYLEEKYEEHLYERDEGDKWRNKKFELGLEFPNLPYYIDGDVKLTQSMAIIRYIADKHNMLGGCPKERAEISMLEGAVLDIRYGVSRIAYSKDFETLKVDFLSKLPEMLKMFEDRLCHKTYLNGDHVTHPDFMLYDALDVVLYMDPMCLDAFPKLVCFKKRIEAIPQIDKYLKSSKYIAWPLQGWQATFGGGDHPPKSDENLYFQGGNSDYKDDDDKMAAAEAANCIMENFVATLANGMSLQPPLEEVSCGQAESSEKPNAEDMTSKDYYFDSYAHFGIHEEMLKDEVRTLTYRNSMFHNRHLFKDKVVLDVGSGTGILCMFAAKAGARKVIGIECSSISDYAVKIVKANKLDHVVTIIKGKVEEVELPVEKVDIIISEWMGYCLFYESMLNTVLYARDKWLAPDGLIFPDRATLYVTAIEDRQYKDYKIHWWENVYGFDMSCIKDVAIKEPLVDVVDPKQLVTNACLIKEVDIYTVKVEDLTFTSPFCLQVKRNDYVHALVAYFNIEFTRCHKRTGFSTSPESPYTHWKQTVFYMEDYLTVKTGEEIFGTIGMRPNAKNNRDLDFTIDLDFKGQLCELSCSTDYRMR

The compound `CN(CCN)Cc1c[nH]nc1-c1ccsc1` [Compound 3] displayed an IC50 of 0.101 to 1 µM. In the case of `CN(CCN)Cc1c[nH]nc1-c1cncnc1` [Compound 4], the IC50 is 0.101 to 1 µM. Then `CN(CCN)Cc1c[nH]nc1-c1cccs1` [Compound 5], with 0.101 to 1 µM. Then `CN(CCN)Cc1c[nH]nc1-c1ccco1` [Compound 6], with 0.101 to 1 µM. The compound `CN(CCN)Cc1c[nH]nc1-c1ccoc1` [Compound 7] registered an IC50 of 0.101 to 1 µM. The same measure for `CN(CCN)Cc1c[nH]nc1-c1cnn(C)c1` [Compound 8]: 0.101 to 1 µM; for `CN(CCN)Cc1c[nH]nc1-c1ccc2scnc2c1` [Compound 9]: at most 0.1 µM; for `Cc1noc(C)c1-c1n[nH]cc1CN(C)CCN` [Compound 10]: at least 10 µM. The same measure for `COc1ncc(-c2n[nH]cc2CN(C)CCN)cn1` [Compound 11]: 0.101 to 1 µM; for `CN(CCN)Cc1c[nH]nc1-c1cn[nH]c1` [Compound 12]: 0.101 to 1 µM; for `CN(CCN)Cc1c[nH]nc1-c1cnc2[nH]ccc2c1` [Compound 13]: at most 0.1 µM. Then `CN(CCN)Cc1c[nH]nc1-c1cc[nH]n1` [Compound 14], with 1.01 to 3 µM; and `CN(CCN)Cc1c[nH]nc1-c1ccnn1C` [Compound 15], with 1.01 to 3 µM; and `CCn1cc(-c2n[nH]cc2CN(C)CCN)cn1` [Compound 16], with at most 0.1 µM. Regarding `CN(CCN)Cc1c[nH]nc1-c1cnn(-c2ccccc2)c1` [Compound 17], the IC50 is at most 0.1 µM. `CN(CCN)Cc1c[nH]nc1-c1cnn(CCO)c1` [Compound 18]: the IC50 lay within 0.101 to 1 µM. Then `CN(CCN)Cc1c[nH]nc1-c1ccc2cnn(C)c2c1` [Compound 19, N^1-methyl-N^1-((3-(1-methyl-1H-indazol-6-yl)-1H-pyrazol-4-yl)methyl)ethane-1,2-diamine], with at most 0.1 µM. `CN(CCN)Cc1c[nH]nc1-c1ccc2ncnn2c1` [Compound 20] came in with an IC50 of at most 0.1 µM.

As for `CN(CCN)Cc1c[nH]nc1-c1ccc2nccn2c1` [Compound 21, N^1-((3-(imidazo[1,2-a]pyridin-6-yl)-1H-pyrazol-4-yl)methyl)-N^1-methylethane-1,2-diamine], the IC50 was at most 0.1 µM. The same measure for `CC(C)n1cc(-c2n[nH]cc2CN(C)CCN)cn1` [Compound 22]: at most 0.1 µM; for `CC(C)Cn1cc(-c2n[nH]cc2CN(C)CCN)cn1` [Compound 23, N^1-((2′-isobutyl-3,4′-bi(1H-pyrazol)-4-yl)methyl)-N^1-methylethane-1,2-diamine]: at most 0.1 µM. For `CN(CCN)Cc1c[nH]nc1-c1cnn(Cc2ccccc2)c1` [Compound 24, N^1-((1′-benzyl-3,4′-bi(1H-pyrazol)-4-yl)methyl)-N^1-methylethane-1,2-diamine], the IC50 was at most 0.1 µM. The same measure for `Cc1n[nH]c(C)c1-c1n[nH]cc1CN(C)CCN` [Compound 25]: at least 10 µM. Then `CN(CCN)Cc1c[nH]nc1-c1ccc2[nH]ncc2c1` [Compound 27, N^1-((3-(1H-indazol-5-yl)-1H-pyrazol-4-yl)methyl)-N^1-methylethane-1,2-diamine], with at most 0.1 µM; and `CN(CCN)Cc1c[nH]nc1-c1cnc(C2CC2)nc1` [Compound 28], with 0.101 to 1 µM; and `CN(CCN)Cc1c[nH]nc1-c1ccc[nH]1` [Compound 29], with 1.01 to 3 µM. The same measure for `CN(CCN)Cc1c[nH]nc1-c1cccc2[nH]ncc12` [Compound 30]: 0.101 to 1 µM.

Broadly, the IC50 is the concentration that inhibits the measured activity by half. A higher IC50 goes with weaker potency.

The values are drawn from patent US9630961B2, “Arginine methyltransferase inhibitors and uses thereof” (Epizyme, Inc., priority 2013, dated 2017).
